The values below come from publication PMC3701070 (PLoS ONE, 2013).

In assay [1] the test system is pMEK and pERK in HCT-116 (wild-type BRAF, mutant KRAS) cells. As to the kind of experiment: Western blot, paradoxical MAPK activation in HCT-116 cells. In kind it is cell-based, human. The settings on record: 100 or 300 nM dabrafenib, co-treatment with 50 nM or 5 nM trametinib, 1 h. As to the method: Cells were lysed in 25 mM Tris-HCl pH 7.5, 2 mM EDTA, 2 mM EGTA, 1% Triton X-100, 0.1% SDS, 50 mM sodium-β-glycerophosphate, 2 mM Na3VO4, 12.5 mM sodium pyrophosphate, 2× Complete EDTA-free mini protease inhibitor tablets (Roche), 2× phosphatase inhibitor cocktails I and II (Sigma-Aldrich). Protein concentrations were determined by Bio-Rad DC™ or dye-based protein assays and lysates were resolved by SDS-PAGE (Invitrogen NuPAGE®) and transferred to PVDF membranes. Membranes were blocked with Odyssey® (LI-COR Biosciences) blocking buffer and incubated with primary antibodies overnight at 4°C. Blots were washed with PBS containing 0.1% Tween-20, incubated with secondary antibodies, and washed again prior to signal detection on a LI-COR Odyssey® reader.
Lysates were immunoblotted for total ERK (tERK) and dual-phosphorylated ERK (ppERK) (B).
(In western blotting, separated proteins are transferred to a membrane and probed.)

The test system of another assay is HCT-116. More on the design: method as in PMID 21245089. The settings on record: HCT-116 cells; read-out: gIC50; cited from earlier work.

In the case of `CC(=O)Nc1cccc(-n2c(=O)n(C3CC3)c(=O)c3c(Nc4ccc(I)cc4F)n(C)c(=O)c(C)c32)c1` [trametinib, reference compound], the “effect on dabrafenib-induced pERK upregulation” value in assay [1] is reported as “abolished”. Moreover, the IC50 in the assay on HCT-116 is 21 nM.
